Reference: paper PMC8907111 (Biochemical and Biophysical Research Communications, 2022)

Target: SARS-CoV-2 M^pro (Severe acute respiratory syndrome coronavirus 2, UniProt P0DTD1)
Assay: FRET protease enzymatic inhibition assay
Assay type: biochemical
Settings: for M^pro Inhibition rate at 50 μM: compound at 50 μM, FRET assay; for inhibition at 50 µM: read-out: M^pro Inhibition rate at 50 μM

Structure (SMILES)	M^pro Inhibition rate at 50 μM	also measured
COc1ccc(-c2cc(=O)c3c(OC)c(O)c(O)cc3o2)cc1 [Compound 5, 6,7-dihydroxy-5-methoxy-2-(4-methoxyphenyl) chromone]		IC50: 16.7 ± 2.09 µM
COc1ccc(-c2cc(=O)c3c(O)c(OC)c(OC)cc3o2)cc1 [Compound 6, Salvigenin]	reduced rates of inhibition	
COc1ccc(-c2cc(=O)c3c(O)c(OC)c(O)cc3o2)cc1 [Compound 3, Pectolinarigenin]	reduced rates of inhibition	
O=c1cc(-c2ccc(O)cc2)oc2cc(O)c(O)c(O)c12 [Compound 1, Scutellarein]		inhibition at 50 µM: 102%
O=c1cc(-c2ccccc2)oc2cc(O)c(O)c(O)c12 [Compound 8, Baicalein, reference compound]		inhibition at 50 µM: 103%
COc1c(O)cc2oc(-c3ccc(O)cc3)cc(=O)c2c1O [Compound 2, Hispidulin]	reduced rates of inhibition	
COc1ccc(-c2cc(=O)c3c(OC)c(OC)c(OC)cc3o2)cc1 [Compound 7, 5,6,7,4'-tetramethoxyflavone]	reduced rates of inhibition	
